Earlier results on 2 compounds are cited in patent US11731951B1, “Water reactivity with natural products” (King Faisal University, priority 2023, dated 2023).

The test system of the series is Gram-positive bacteria, including multi-resistant and vancomycin-resistant strains. Conditions: from "Abyssomicins—A 20-Year Retrospective View".

As to `C[C@@H]1C[C@H](C)C(=O)/C=C/C2[C@@H](O)[C@H]3OC4=C(C(=O)O[C@@]42C[C@H]3C)C1=O` [abyssomicin C], the antibiotic activity result was “high antibiotic activity”.
On to `CC1CC(C)C(=O)C2=C3OC4C(C)CC3(OC2=O)C(/C=C\C1=O)C4O` (centres unmarked) [atrop-abyssomicin C], for which the antibiotic activity entry is recorded as “high antibiotic activity”.
